Measurements: US20240009122A1, “Small Molecule Formulation” (Dialectic Therapeutics, Inc., priority 2020, published 2024)

Assay: Solubility of Compound 1 (statement)
Assay type: physicochemical
From the text: While Compound 1 is an example of a small molecule with a number of polar functional groups. […] These organic polar solvents, however, are not typically pharmaceutically acceptable for use in drug formulation.

Solubility in organic polar solvents: sufficiently soluble
Solubility in water or water based solvent mixtures: not sufficiently soluble
SMILES: Cc1ncsc1-c1ccc([C@H](C)NC(=O)[C@@H]2C[C@@H](O)CC2C(=O)[C@@H](NC(=O)CCCCCC(=O)N2CCN(CC[C@H](CSc3ccccc3)Nc3ccc(S(=O)(=O)NC(=O)c4ccc(N5CCN(CC6=C(c7ccc(Cl)cc7)CCC(C)(C)C6)CC5)cc4)cc3S(=O)(=O)C(F)(F)F)CC2)C(C)(C)C)cc1 (some centres unmarked) [Compound 1]
